Laboratory results published in patent US4748161A, “Triterpenyl esters of organic acids and hypolipidemic agents composed of them” (Amano Pharmaceutical Co., Ltd., priority 1984, dated 1988).
“And” between values parts separate entries of the source, which are not always exact repeats. Equal entries are not always repeated. Where two headings read alike, the source gives them in different places.

What was measured:
[1] = system: serum lipids and serum lipid hydroperoxide; assay: Pharmacological test method B for anti-hyperlipidemic activity (serum lipids, 4 weeks feeding); format: in vivo, male Wistar strain rats; set-up: AI Diff.: unit not given here; conditions: for change in vivo at 1 % in diet: Rattus norvegicus, po, 672 h; for change in vivo at 1 % in diet / AI Diff. / HDL-C Diff. / LPO Diff. / PL Diff. / TG Diff.: versus control group; for TG % of diff. (Table 20) / TG Diff. (Table 20): Table 20, versus control group; for HDL-C rise compared with normal diet group: versus normal diet group
Description: Pharmacological test method B for anti-hyperlipidemic acitivity (the term "method B" was used in the present specification)
Male Wistar strain rats (100±1 g, each 8 rats were formed into a group except that the control group fed with a hyperlipidemic diet was formed of 16 rats) were used as test animals. A powdery diet (CE-2, supplied by Clea Japan, Inc.) was used as ordinary diet. The hyperlipidemic diet was prepared by fortifying the ordinary diet with cholesterol (1%) and cholic acid (0.5%). Each test compound (1%) for administration was admixed with the hyperlipidemic diet. Each two rats were kept in a cage and given the prescribed diet and water ad libitum. Thus the rats were fed for 4 weeks at a constant temperature of 23±1° C. and a constant R.H. of 55±5%. Finally, the rats were fasted from food except water for 16 hours (from 4 p.m. of the 28th test day to 8 a.m. of the 29th test day), and under anesthesia with pentbarbital sodium (tradename: Nembutal), blood was taken from each rat through the descending abdominal arota. Then, TC, HDL-C, TG, PL, and LPO in the serum were measured in the following manner.
A TC kit-K (supplied by Nippon Shoji Kaisha, Ltd.) was used. The principle of this determination is as follows: The ester of cholesterol in the serum is hydrolyzed with cholesterol-ester hydrolase into free cholesterol and fatty acids. All the free cholesterol is oxidized with cholesterol oxydase to form Δ^4 -cholestenone and hydrogen peroxide. Phenol and 4-aminoantipyrin are oxidatively condensed together by the formed hydrogen peroxide and peroxydase. The produced red quinone coloring matter is measured by colorimetry for absorbance at 500 nm using a spectrophotometer, thereby determining the TC:
The color-developing liquid (3.0 ml) is well mixed with the sample serum (0.02 ml). The mixture once heated at 37° C. for 15 minutes, is measured for absorbance at 500 nm with a spectrophotometer. The found absorbance is denoted by EA. On the other hand, the color-developing liquid (3.0 ml) is well mixed with the standard solution. The mixture is treated and measured for absorbance at 500 nm in the same manner as the above. This found absorbance is denoted by ES. Both EA and ES are determined with reference to the value of the blank test conducted using the color-developing liquid (3.0 ml) alone. [formula]
An HDL-C kit-N (supplied by Nippon Shoji Kaisha, Ltd.) was used. […] (VLDL) and lo density lipoprotein (LDL) in the serum is precipitated by the action of heparin. The precipitate is separated by centrifugation. High density lipoprotein (HDL) is dissolved in the separated supernatant. Esters of cholesterol in this fraction is hydrolyzed with cholesterol-ester hydrolase into free cholesterol and fatty acids. All the free cholesterol is oxidized with cholesterol oxydase to form Δ^4 -cholestenone and hydrogen peroxide. Phenol and 4-aminoantipyrine are oxidatively condensed together by the formed hydrogen peroxide and peroxydase. The produced red quinone coloring matter is measured by colorimetry for absorbance at 500 nm using a spectrophotometer, thereby determining the HDL-C.
A PL kit-K (supplied by Nippon Shoji Kaisha, Ltd.) was used for the determination. Lecithin, sphingomyelin, and lysolecithin are decomposed by phospholipase D into choline and phosphatidic acid, N-acylsphingosyl phosphate, or lysophosphatidic acid, respectively. The resulting choline is quantitatively decomposed by choline oxydase into hydrogen peroxide and betaine. With this hydrogen peroxide, and aid of peroxydase, phenol and 4-aminoantipyrin are condensed into red quinone pigment, then the absorbance at 500 nm of which is measured with a spectrophotometer, thereby determining the PL. […]

[2] = system: serum lipids and serum lipid hydroperoxide; assay: Pharmacological test method A for anti-hyperlipidemic activity (serum lipids, 2 weeks feeding); format: in vivo, male Wistar strain rats; conditions: for AI [(TC - HDL-C)/(HDL-C)] / HDL-C in serum / LPO in serum / PL in serum / TC in serum / TG in serum: 1% in hyperlipidemic diet, 2 weeks
Procedure, shortened: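 Serum TC, HDL-C (heparin precipitation), PL, TG and LPO measured by colorimetric kits, largely at 500 nm, from abdominal aorta blood after 16 h fasting. Rats (male Wistar, 10/group) ate a cholesterol/cholic acid diet 10 g/day for 2 weeks, supplemented with 1% each of three cycloartane triterpenoids.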

Row | Molecule | change in vivo at 1 % in diet ([1]; read-out: AI % of diff.) | change in vivo at 1 % in diet ([1]; read-out: HDL-C % of diff.) | change in vivo at 1 % in diet ([1]; read-out: LPO % of diff.) | change in vivo at 1 % in diet ([1]; read-out: PL % of diff.) | change in vivo at 1 % in diet ([1]; read-out: TG % of diff.) | TG % of diff. (Table 20) [1] | TG Diff. (Table 20) [1] | AI Diff. [1] | HDL-C Diff. [1] | LPO Diff. [1] | PL Diff. [1] | TG Diff. [1] | AI [(TC - HDL-C)/(HDL-C)] [2] | HDL-C in serum [2] | LPO in serum [2] | PL in serum [2] | TC in serum [2] | TG in serum [2] | AI Diff. ([2]; versus control group) | LPO % of diff. ([2]; versus control group) | also measured
1 | C=C(CCC(C)C1CCC2(C)C3CCC4C(C)(C)C(OC(=O)C(C)=Cc5ccc(OC(=O)CC)c(OC)c5)CCC45CC35CCC12C)C(C)C (stereo not drawn) [Example 117, 24-methylenecycloartanyl ester of 3-methoxy-4-propionyloxy-α-methylcinnamic acid] | -64.3% | 63.1% | -24.5% | -28.3% | -21.6% | -37.7% | -157.9 mg/dL | -16.17 | +10.1 mg/dl | -0.85 nmol/mL | -50.0 mg/dL | -17.6 mg/dL |  |  |  |  |  |  |  |  | 
2 | CCC(=O)Oc1ccc(C=C(C)C(=O)OC2CCC34CC35CCC3(C)C(C(C)CCC=C(C)C)CCC3(C)C5CCC4C2(C)C)cc1OC (stereo not drawn) [Example 113, cycloartenyl ester of 3-methoxy-4-propionyloxy-α-methyl cinnamic acid] | -63.5% | 55.6% | -12.1% | -29.7% | -25.7% | -39.4% | -164.7 mg/dL | -15.96 | +8.9 mg/dl | -0.42 nmol/mL | -52.5 mg/dL | -20.9 mg/dL |  |  |  |  |  |  |  |  | 
3 | COc1ccc(N)cc1C(=O)OC1CCC23CC24CCC2(C)C(C(C)CCC=C(C)C)CCC2(C)C4CCC3C1(C)C (stereo not shown) [Example 171, cycloartenyl ester of 5-amino-2-methoxybenzoic acid] | -71.6% | 51.3% | -36% | -33% | -19.3% | -53.0% | -221.6 mg/dL | -18.02 | +8.2 mg/dl | -1.25 nmol/mL | -58.4 mg/dL | -15.7 mg/dL |  |  |  |  |  |  |  |  | 
4 | C=C(CCC(C)C1CCC2(C)C3CCC4C(C)(C)C(OC(=O)C(C)=Cc5cccc(N)c5)CCC45CC35CCC12C)C(C)C (stereo not drawn) [Example 213, 24-Methylenecycloartanyl ester of m-amino-α-methylcinnamic acid] | -93% | 328% | -38.9% | -34.8% | -29.2% | -54.7% | -229.0 mg/dL | -23.38 | +52.4 mg/dl | -1.35 nmol/mL | -61.5 mg/dL | -23.7 mg/dL |  |  |  |  |  |  |  |  | HDL-C rise compared with normal diet group [1]: remarkable rises
5 | COc1cc(C=CC(=O)OC2CCC34CC35CCC3(C)C(C(C)CCC(C)=C(C)C)CCC3(C)C5CCC4C2(C)C)ccc1N (stereo not shown) [Example 178, Cyclobranyl ester of 4-amino-3-methoxycinnamic acid] | -88.9% | 215% | -36.6% | -28.2% | -28% | -54.2% | -226.9 mg/dL | -22.35 | +34.4 mg/dl | -1.27 nmol/mL | -49.8 mg/dL | -22.8 mg/dL |  |  |  |  |  |  |  |  | HDL-C rise compared with normal diet group [1]: remarkable rises
6 | CCOc1cc(C(=O)OC2CCC34CC35CCC3(C)C(C(C)CCC=C(C)C)CCC3(C)C5CCC4C2(C)C)ccc1O (stereo not shown) [Example 60, cycloartenyl-3-ethoxy-4-hydroxybenzoate] |  |  |  |  |  |  |  |  |  |  |  |  | 0.609 | 102.5 mg/dL | 1.98 nmol/mL | 161.4 mg/dL | 164.9 mg/dL | 32.8 mg/dL | -0.393 | -15.0% | AI % of diff. ([2]; versus control group): -39.2%; HDL-C % of diff. ([2]; versus control group): +6.5%; HDL-C Diff. ([2]; versus control group): +6.3 mg/dl; LPO Diff. ([2]; versus control group): -0.35 nmol/mL; PL % of diff. ([2]; versus control group): -10.8%; PL Diff. ([2]; versus control group): -19.5 mg/dL; TC % of diff. ([2]; versus control group): 14.4%; TC Diff. ([2]; versus control group): -27.7 mg/dL; TG % of diff. ([2]; versus control group): -1.2%; TG Diff. ([2]; versus control group): -0.4 mg/dL
7 | CC(C)=CCCC(C)C1CCC2(C)C3CCC4C(C)(C)C(OC(=O)c5cccc(O)c5)CCC45CC35CCC12C (stereo not shown) [Example 12, cycloartenyl-m-hydroxybenzoate] |  |  |  |  |  |  |  |  |  |  |  |  | 1.571 | 58.5 mg/dL | 2.03 nmol/mL | 140.4 mg/dL | 150.4 mg/dL | 24.0 mg/dL | -0.276 | -13.2% | AI % of diff. ([2]; versus control group): -14.9%; HDL-C % of diff. ([2]; versus control group): -0.3%; HDL-C Diff. ([2]; versus control group): -0.2 mg/dL; LPO Diff. ([2]; versus control group): -0.31 nmol/mL; PL % of diff. ([2]; versus control group): -5.4%; PL Diff. ([2]; versus control group): -8.0 mg/dL; TC % of diff. ([2]; versus control group): -10.0%; TC Diff. ([2]; versus control group): -16.7 mg/dL; TG % of diff. ([2]; versus control group): -3.2%; TG Diff. ([2]; versus control group): -0.8 mg/dL
8 | cycloartenyl-3,4-dihydroxycinnamate [Example 2] |  |  |  |  |  |  |  |  |  |  |  |  | 0.860 and 1.180 | 90.3 mg/dL and 89.2 mg/dL | 1.98 nmol/mL and 2.05 nmol/mL | 168.2 mg/dL and 170.2 mg/dL | 168.0 mg/dL and 194.5 mg/dL | 30.6 mg/dL and 41.3 mg/dL | -0.504 | -12.8% and -11.2% | AI Diff. ([2]; Table 2, versus control group): -0.657 mg/dL; PL % of diff. ([2]; versus control group): -3.1% and -5.0%; TC % of diff. ([2]; versus control group): -18.1% and -10.4%; TG % of diff. ([2]; versus control group): -10.9% and -3.5%
9 | CC(C)=C(C)CCC(C)C1CCC2(C)C3CCC4C(C)(C)C(OC(=O)c5ccc(N)cc5)CCC45CC35CCC12C (stereo not shown) [Example 43, cyclobranyl-p-aminobenzoate] |  |  |  |  |  |  |  |  |  |  |  |  | 0.713 | 91.9 mg/dL | 1.54 nmol/mL | 146.0 mg/dL | 157.4 mg/dL | 33.3 mg/dL | -0.509 | -31.3% | AI % of diff. ([2]; versus control group): -41.7%; HDL-C % of diff. ([2]; versus control group): +6.2%; HDL-C Diff. ([2]; versus control group): +5.4 mg/dl; LPO Diff. ([2]; versus control group): -0.70 nmol/mL; PL % of diff. ([2]; versus control group): -15.4%; TC % of diff. ([2]; versus control group): -18.1%; TC Diff. ([2]; versus control group): -34.8 mg/dL; TG % of diff. ([2]; versus control group): -8.2%; TG Diff. ([2]; versus control group): -3.0 mg/dL
10 | CC(C)=C(C)CCC(C)C1CCC2(C)C3CCC4C(C)(C)C(OC(=O)c5cccc(N)c5)CCC45CC35CCC12C (stereo not shown) [Example 49, cyclobranyl-m-aminobenzoate] |  |  |  |  |  |  |  |  |  |  |  |  | 1.288 | 58.0 mg/dL | 2.02 nmol/mL | 128.4 mg/dL | 132.7 mg/dL | 18.3 mg/dL | -0.559 | -13.7% | AI % of diff. ([2]; versus control group): -30.3%; HDL-C % of diff. ([2]; versus control group): -1.2%; HDL-C Diff. ([2]; versus control group): -0.7 mg/dL; LPO Diff. ([2]; versus control group): -0.32 nmol/mL; PL % of diff. ([2]; versus control group): -13.5%; PL Diff. ([2]; versus control group): -20.0 mg/dL; TC % of diff. ([2]; versus control group): -20.6%; TC Diff. ([2]; versus control group): -34.4 mg/dL; TG % of diff. ([2]; versus control group): -26.2%; TG Diff. ([2]; versus control group): -6.5 mg/dL
